Patent US20170027172A1, “USE OF SUBSTITUTE OXO TETRAHYDROQUINOLINE SULFONAMIDES OR SALTS THEREOF FOR RAISING STRESS TOLERANCE OF PLANTS” (BAYER CROPSCIENCE AKTIENGESELLSCHAFT, priority 2014, published 2017)

What was measured:
Triticum aestivum [1] = assay: Drought stress greenhouse test Part C, visual scoring vs stressed control plants; type: in vivo; conditions: spray application 25 g/ha, efficacy range of 3-4 pots
Protocol: Seeds of monocotyledonous and dicotyledonous crop plants were sown in sandy loam in plastic or wood-fiber pots, covered with soil or sand and cultivated in a greenhouse under good growth conditions. The trial plants were treated at the early leaf stage (BBCH10-BBCH13). To assure uniform water supply before commencement of stress, the potted plants were supplied with water by dam irrigation prior to substance application. The inventive compounds were first formulated as wettable powders (WP) or dissolved in a solvent mixture. The further dilution was effected with water supplemented with 0.2% wetting agent (e.g. agrotin). The finished spray liquor was sprayed onto the green parts of the plant at an equivalent water application rate of 600 l/ha. Substance application was followed immediately by stress treatment of the plants. For this purpose, the wood-fiber pots were transferred in plastic inserts in order to prevent them from subsequently drying out too quickly. Drought stress was induced by gradual drying out under the following conditions: “Day”: 14 hours with illumination at 26-30° C. “Night”: 10 hours without illumination at 18-20° C. The duration of the respective stress phases was guided mainly by the condition of the stressed control plants. It was ended (by re-irrigating and transfer to a greenhouse with good growth conditions) as soon as irreversible damage was observed on the stressed control plants. The end of the stress phase was followed by an about 4-7-day recovery phase, during which the plants were once again kept under good growth conditions in a greenhouse. The duration of the recovery phase was guided mainly by when the trial plants had attained a state which enabled visual scoring of potential effects, and was therefore variable. Once this juncture had been reached, the appearance of the plants treated with test substances was recorded in comparison to the stressed control plants by the following categories: [table] For each substance and dosage, 3-4 pots were treated and evaluated. […] BRSNS=Brassica napus TRZAS=Triticum aestivum

Triticum aestivum [2] = assay: Drought stress test on wheat Part D, reduction in damage intensity from fresh weights; type: in vivo; conditions: efficacy = reduction in damage intensity (fresh weight) under drought stress, at least three repeats
From the text: Wheat grains were sown in a standardized number in sandy loam soil plastic pots, covered with soil or sand and grown in a greenhouse under good growth conditions. Pots with uneven degrees of emergence were excluded prior to the start of the trial. The treatment with test substances was effected at the early leaf stage (BBCH10-BBCH13). To assure uniform water supply, the potted plants were supplied with water by dam irrigation prior to substance application. The inventive compounds were first formulated as wettable powders (WP) or dissolved in a solvent mixture. The further dilution was effected with water supplemented with 0.2% wetting agent (e.g. agrotin). The finished spray liquor was sprayed onto the green parts of the plant at an equivalent water application rate of 600 l/ha. Substance application was followed immediately by stress treatment of the plants. Drought stress was induced by gradual drying out under the following conditions: “Day”: 14 hours with illumination at 26-30° C. “Night”: 10 hours without illumination at 18-20° C. The duration of the respective stress phases was guided mainly by the condition of the stressed control plants. It was ended (by re-irrigating and transfer to a greenhouse with good growth conditions) as soon as irreversible damage was observed on the stressed control plants. The end of the stress phase was followed by an about 7-day recovery phase, during which the plants were once again kept under good growth conditions in a greenhouse. The exact duration of the recovery phase was variable for reasons related to the trial. At the end of the recovery phase, the fresh weights of the plant parts above ground were determined. By comparison with unstressed control plants which were kept under good growth conditions over the entire duration of the trial, percentage damage intensities were first calculated from the fresh weight values. The reduction in damage intensity resulting from treatment with test substance was then calculated by the following formula: [formula] EF: Efficacy DIs: Damage intensity of the stressed control plants DIt: Damage intensity of the stressed plants treated with test compound The values reported in table D-1 below are results from at least three repeats. BRSNS=Brassica napus TRZAS=Triticum aestivum

[3] = biological target: T1, phosphatase ABI1 via the co-regulator RCAR11/PYR1 (Arabidopsis thaliana, UniProt O49686+P49597); assay: In vitro inhibition of the phosphatase ABI1 via the co-regulator RCAR11/PYR1, MUP dephosphorylation; type: biochemical; design: dose or concentration left out as unconfirmed; conditions: in a solution of DMSO and water; fluorescence at 460 nm
T1 sequence (O49686 1-191): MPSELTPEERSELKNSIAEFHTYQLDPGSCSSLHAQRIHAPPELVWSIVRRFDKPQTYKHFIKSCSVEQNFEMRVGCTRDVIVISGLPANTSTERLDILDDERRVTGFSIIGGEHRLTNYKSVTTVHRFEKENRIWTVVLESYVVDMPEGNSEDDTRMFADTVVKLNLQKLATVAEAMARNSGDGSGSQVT
T1 sequence (P49597 1-434): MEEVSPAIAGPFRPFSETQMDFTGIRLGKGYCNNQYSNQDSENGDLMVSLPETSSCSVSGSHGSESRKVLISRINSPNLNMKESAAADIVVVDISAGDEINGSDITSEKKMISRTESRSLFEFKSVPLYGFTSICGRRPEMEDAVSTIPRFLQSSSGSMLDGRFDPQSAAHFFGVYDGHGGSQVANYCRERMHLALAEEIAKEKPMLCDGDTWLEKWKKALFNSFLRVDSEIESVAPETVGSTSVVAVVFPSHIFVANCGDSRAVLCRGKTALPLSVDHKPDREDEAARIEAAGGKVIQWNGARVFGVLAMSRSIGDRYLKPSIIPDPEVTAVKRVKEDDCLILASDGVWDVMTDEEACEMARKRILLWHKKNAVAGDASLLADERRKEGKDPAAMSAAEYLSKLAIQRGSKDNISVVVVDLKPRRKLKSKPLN
From the text: Effects of the phytohormone abscisic acid (ABA) on the behavior of plants under abiotic stress and the mechanism of action of ABA are described in the literature (cf. Abrams et al., WO97/23441, Park et al. Science, 2009, 324, 1068; Grill et al. Science, 2009, 324, 1064; Tanokura et al. Biophysics, 2011, 7, 123; Schroeder et al. Plant J. 2010, 61, 290). Therefore, it is possible with the aid of a suitable in vitro test system to derive a correlation between the action of ABA and the stress response of a plant under abiotic stress. In the event of water deficiency (drought stress), plants form the phytohormone abscisic acid (ABA). This binds, along with a co-regulator (Regulatory Component of ABA-Receptor=RCAR according to Grill et al. Science, 2009, 324, 1064 or PYR/PYL according to Cutler et al. Science, 2009, 324, 1068), to a phosphatase (e.g. ABI1, a type 2C protein phosphatase, also abbreviated to PP2C) and inhibits its activity. As a result, a “downstream” kinase (e.g. SnRK2) is no longer dephosphorylated. This kinase, which is thus active, via phosphorylation of transcription factors (e.g. AREB/ABF, cf. Yoshida et al., 2010, 61, 672), switches on a genetic protection program to increase drought stress tolerance. The assay described hereinafter utilizes the inhibition of the phosphatase ABI1 via the co-regulator RCAR11/PYR1 aus Arabidopsis thaliana. For the determination of activity, the dephosphorylation of 4-methylumbelliferyl phosphate (MUP) was measured at 460 nm. The in vitro assay was conducted in Greiner 384-well PS microplates F-well, using two controls: a) 0.5% dimethyl sulfoxide (DMSO) and b) 5 μM abscisic acid (ABA). The assay described here was generally conducted with substance concentrations of the appropriate chemical test substances in a concentration range of 0.1 μM to 100 μM in a solution of DMSO and water. The substance solution thus obtained, if necessary, was stirred with esterase from porcine liver (EC 3.1.1.1) at room temperature for 3 h and centrifuged at 4000 rpm for 30 min. A total volume of 45 μl was introduced into each cavity of the microplate, having the following composition: • 1) 5 μl of substance solution, i.e. a) DMSO 5% or b) abscisic acid solution or c) the corresponding example compound of the general formula (I) dissolved in 5% DMSO. • 2) 20 μl of enzyme buffer mix, composed of a) 40% by vol. of enzyme buffer (10 mL contain equal proportions by volume of 500 mM Tris-HCl pH 8, 500 mM NaCl, 3.33 mM MnCl2, 40 mM dithiothreitol (DTT)), b) 4% by vol. of ABI1 dilution (protein stock solution was diluted so as to give, after addition, a final concentration in the assay of 0.15 μg ABI1/well), c) 4% by vol. of RCAR11 dilution (enzyme stock was diluted so as to give, on addition of the dilution to the enzyme buffer mix, a final concentration in the assay of 0.30 μg enzyme/well), d) 5% by vol. of Tween20 (1%), e) 47% by vol. H2O bi-dist. • 3) 20 μl of substrate mix, composed of a) 10% by vol. of 500 mM Tris-HCl pH8, b) 10% by vol. of 500 mM NaCl, c) 10% by vol. of 3.33 mM MnCl2, d) 5% by vol. of 25 mM MUP, 5% by vol. of Tween20 (1%), 60% by vol. of H2O bi-dist.
Enzyme buffer mix and substrate mix were made up 5 minutes prior to the addition and warmed to a temperature of 35° C. On completion of pipetting of all the solutions and on completion of mixing, the plate was incubated at 35° C. for 20 minutes. Finally, a relative fluorescence measurement was made at 35° C. with a BMG Labtech “POLARstar Optima” microplate reader using a 340/10 nm excitation filter and a 460 nm emission filter. The efficacy of the compounds of the general formula (I) is reported in the table which follows using abscisic acid […] as comparative substance (No. 37) according to the following classification: ++++ (inhibition≧90%), +++ (90%>inhibition≧70%), ++ (70%>inhibition≧50%), + (50%>inhibition≧30%). […]

ABI1 inhibition [3] | Compound | EF [%] (TRZAS) (Triticum aestivum [2]; 250 g/ha) | EF [%] (TRZAS) (Triticum aestivum [2]; 25 g/ha) | other results
– | CCC1(C)CC(=O)N(CCOC)c2ccc(NS(=O)(=O)Cc3ccc(Cl)cc3)cc21 (racemic) [F7-165] | – | – | Effect (TRZAS) (Triticum aestivum [1]): 10-20
++ (70%>inhibition≧50%) | N#CCCCN1C(=O)CCc2cc(NS(=O)(=O)Cc3cccc(Cl)c3)ccc21 [A48-166] | 13 | – | –
++ (70%>inhibition≧50%) | COC(=O)CN1C(=O)CCc2cc(NS(=O)(=O)Cc3ccccc3[N+](=O)[O-])ccc21 [A50-177] | 19 | – | –
++ (70%>inhibition≧50%) | COC(=O)CCN1C(=O)CCc2cc(NS(=O)(=O)Cc3cccc(C)c3)ccc21 [A51-153] | 16 | – | –
++++ (inhibition≧90%) | COC(=O)CCN1C(=O)CCc2cc(NS(=O)(=O)Cc3ccc(Cl)cc3)ccc21 [A51-165] | – | 18 | –
++ (70%>inhibition≧50%) | COC(=O)CCN1C(=O)CCc2cc(NS(=O)(=O)Cc3cccc(Cl)c3)ccc21 [A51-166] | 20 | – | –
++++ (inhibition≧90%) | COC(=O)CCN1C(=O)CCc2cc(NS(=O)(=O)Cc3ccc(C(F)(F)F)cc3)ccc21 [A51-178] | – | 10 | –
++++ (inhibition≧90%) | COC(=O)CCN1C(=O)CCc2cc(NS(=O)(=O)Cc3ccc(C#N)cc3)ccc21 [A51-181] | 15 | – | –
– | COC(=O)CN1C(=O)CC(C)(C)c2cc(NS(=O)(=O)Cc3ccc(F)cc3)ccc21 [B50-158] | 18 | – | –
– | COC(=O)CN1C(=O)CC(C)(C)c2cc(NS(=O)(=O)Cc3ccccc3Cl)ccc21 [B50-168] | 14 | – | –
– | COC(=O)CN1C(=O)CC(C)(C)c2cc(NS(=O)(=O)Cc3ccc([N+](=O)[O-])cc3)ccc21 [B50-175] | – | 12 | –
– | COC(=O)CN1C(=O)CC(C)(C)c2cc(NS(=O)(=O)Cc3ccc(C(F)(F)F)cc3)ccc21 [B50-178] | 20 | – | –
– | COC(=O)CN1C(=O)CC(C)(C)c2cc(NS(=O)(=O)Cc3cccc(C(F)(F)F)c3)ccc21 [B50-179] | 15 | – | –
– | COC(=O)CCN1C(=O)CC(C)(C)c2cc(NS(=O)(=O)Cc3ccc(F)cc3)ccc21 [B51-158] | – | 13 | –
– | COC(=O)CCN1C(=O)CC(C)(C)c2cc(NS(=O)(=O)Cc3cccc(Br)c3)ccc21 [B51-173] | – | 16 | –
– | CCOC(=O)CCN1C(=O)CC(C)(C)c2cc(NS(=O)(=O)Cc3ccc(F)cc3)ccc21 [B52-158] | – | 10 | –
– | CCOC(=O)CCN1C(=O)CC(C)(C)c2cc(NS(=O)(=O)Cc3cccc(Cl)c3)ccc21 [B52-166] | 14 | – | –
– | CCOC(=O)CCN1C(=O)CC(C)(C)c2cc(NS(=O)(=O)Cc3ccc(Br)cc3)ccc21 [B52-172] | 14 | – | –
– | CCOC(=O)CCN1C(=O)CC(C)(C)c2cc(NS(=O)(=O)Cc3cccc(Br)c3)ccc21 [B52-173] | – | 14 | –
– | CCOC(=O)CCN1C(=O)CC(C)(C)c2cc(NS(=O)(=O)Cc3ccc([N+](=O)[O-])cc3)ccc21 [B52-175] | 10 | – | –
+ (50%>inhibition≧30%) | Cc1ccc(S(=O)(=O)Nc2ccc3c(c2)C2(CCC2)CC(=O)N3CC2CC2)cc1 [J3-50, 4-Methyl-N-[1′-(cyclopropylmethyl)-2′-oxo-2′,3′-dihydro-1′H-spiro[cyclobutyl-1,4′-quinolin]-6′-yl]phenylsulfonamide] | – | – | –

Compound | ABI1 inhibition [3] | EF [%] (TRZAS) (Triticum aestivum [2]; 250 g/ha) | EF [%] (TRZAS) (Triticum aestivum [2]; 25 g/ha) | other results
CC1=CC(=O)CC(C)(C)[C@@]1(O)/C=C/C(C)=C\C(=O)O [abscisic acid, reference compound] | ++++ (inhibition≧90%) | – | – | –
